From ChEMBL document CHEMBL1128442, “8-Substituted O6-benzylguanine, substituted 6(4)-(benzyloxy)pyrimidine, and related derivatives as inactivators of human O6-alkylguanine-DNA alkyltransferase” (J Med Chem, 1995)

Tests used:
[1] = target: T1, Methylated-DNA--protein-cysteine methyltransferase (Homo sapiens) (UniProt P16455); conditions: HT-29
T1 sequence (whole entry): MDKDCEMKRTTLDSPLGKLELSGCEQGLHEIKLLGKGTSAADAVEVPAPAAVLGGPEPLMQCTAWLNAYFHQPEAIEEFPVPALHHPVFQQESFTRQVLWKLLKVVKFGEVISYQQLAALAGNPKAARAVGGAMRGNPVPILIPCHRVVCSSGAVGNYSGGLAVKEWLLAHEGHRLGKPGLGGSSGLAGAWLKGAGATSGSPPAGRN
Description: AGT-inactivating activity was determined by 50% inactivation in HT-29 cell free extract upon incubation for 30 min

[2] = target: T1, Methylated-DNA--protein-cysteine methyltransferase (Homo sapiens); conditions: HT-29; remark: listed apart in the source
Description: AGT-inactivating activity was determined by 50% inactivation in HT-29 cells upon incubation for 4 h

| SMILES | ED50 [1] [µM] | ED50 [2] [µM] |
| --- | --- | --- |
| Nc1cc(OCc2ccccc2)nc(N)n1 | 15 | 5 |
| Oc1nc(OCc2ccccc2)c2[nH]cnc2n1 | 60 | 35 |
| Nc1nc(N)c(Br)c(OCc2ccccc2)n1 | 2 | 0.8 |
| Nc1ncnc(OCc2ccccc2)c1[N+](=O)[O-] | 28 | 8 |
| Nc1nc(N)c(N=O)c(OCc2ccccc2)n1 | 0.06 | 0.02 |
| Nc1nc(N)nc(OCc2ccccc2)n1 | 4 | 1 |
| CNc1nc(OCc2ccccc2)c2[nH]cnc2n1 | 160 | 60 |
| CC(=O)Nc1nc(OCc2ccccc2)c2[nH]c(O)nc2n1 | 65 | 11 |
| Nc1nc(OCc2ccccc2)c2[nH]nnc2n1 | 0.07 | 0.06 |
| Fc1nc(OCc2ccccc2)c2[nH]cnc2n1 | 48 | 12 |
| Nc1nc(OCc2ccccc2)c2[nH]c(O)nc2n1 | 0.3 | 0.15 |
| Nc1nc(OCc2ccccc2)c2[nH]c(C(F)(F)F)nc2n1 | 0.4 | 0.25 |
| Cc1nc2[nH]c(N)nc(OCc3ccccc3)c-2n1 | 0.3 | 0.1 |
| Oc1nc(OCc2ccccc2)c2[nH]c(O)nc2n1 | 25 | 45 |
| Nc1nc(OCc2ccccc2)c2[nH]c(Br)nc2n1 | 0.08 | 0.06 |
| Nc1nc(N)c(N)c(OCc2ccccc2)n1 | 0.4 | 0.3 |
| CN(C)c1nc(OCc2ccccc2)c2[nH]cnc2n1 | 200 | 110 |
| Nc1ncc([N+](=O)[O-])c(OCc2ccccc2)n1 | 0.4 | 0.05 |
| Nc1nc(OCc2ccccc2)c2[nH]c(N)nc2n1 | 0.7 | 2 |
| Cc1nc(N)nc(OCc2ccccc2)c1[N+](=O)[O-] | 0.4 | 0.06 |
